According to publication PMC5698089 (Archives of biochemistry and biophysics, 2017):

What was measured:
Assay in all cases: surface plasmon resonance, immobilized protein, […] model
Type in all cases: binding
[1] = biological target: T1, SR-B2 (Scavenger receptor class B protein 2) (Homo sapiens, UniProt Q14108)
T1 sequence (Q14108 1-478): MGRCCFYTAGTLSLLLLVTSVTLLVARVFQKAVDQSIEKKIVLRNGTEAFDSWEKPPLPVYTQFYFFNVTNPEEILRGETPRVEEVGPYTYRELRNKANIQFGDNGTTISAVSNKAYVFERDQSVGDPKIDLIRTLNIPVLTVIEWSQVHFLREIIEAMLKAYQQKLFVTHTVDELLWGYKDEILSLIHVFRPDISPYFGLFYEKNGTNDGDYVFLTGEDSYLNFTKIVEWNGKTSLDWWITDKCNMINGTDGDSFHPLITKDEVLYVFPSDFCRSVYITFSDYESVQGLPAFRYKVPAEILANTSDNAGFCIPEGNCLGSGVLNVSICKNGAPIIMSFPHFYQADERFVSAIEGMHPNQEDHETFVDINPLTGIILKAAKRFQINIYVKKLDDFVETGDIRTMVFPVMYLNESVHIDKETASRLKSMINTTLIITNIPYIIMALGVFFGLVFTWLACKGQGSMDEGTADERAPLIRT

[2] = biological target: T2, SR-B1 (Scavenger receptor class B protein 1) (Homo sapiens, UniProt Q8WTV0)
T2 sequence (Q8WTV0 33-443 limits assumed): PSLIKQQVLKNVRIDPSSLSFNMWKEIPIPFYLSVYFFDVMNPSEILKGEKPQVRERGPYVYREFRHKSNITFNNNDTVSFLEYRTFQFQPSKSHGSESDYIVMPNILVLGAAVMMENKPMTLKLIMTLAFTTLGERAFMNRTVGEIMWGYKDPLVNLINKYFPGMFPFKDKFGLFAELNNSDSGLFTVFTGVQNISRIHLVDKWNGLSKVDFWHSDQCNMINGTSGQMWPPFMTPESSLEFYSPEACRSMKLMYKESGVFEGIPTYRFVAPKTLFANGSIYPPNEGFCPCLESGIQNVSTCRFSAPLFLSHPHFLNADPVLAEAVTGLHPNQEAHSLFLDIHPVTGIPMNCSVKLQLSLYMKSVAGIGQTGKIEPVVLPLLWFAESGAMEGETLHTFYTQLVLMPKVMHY

[3] = biological target: CD36 (Cluster determinant 36) (Homo sapiens, UniProt P16671)
Sequence of CD36 (Cluster determinant 36) (P16671 30-439 limits assumed): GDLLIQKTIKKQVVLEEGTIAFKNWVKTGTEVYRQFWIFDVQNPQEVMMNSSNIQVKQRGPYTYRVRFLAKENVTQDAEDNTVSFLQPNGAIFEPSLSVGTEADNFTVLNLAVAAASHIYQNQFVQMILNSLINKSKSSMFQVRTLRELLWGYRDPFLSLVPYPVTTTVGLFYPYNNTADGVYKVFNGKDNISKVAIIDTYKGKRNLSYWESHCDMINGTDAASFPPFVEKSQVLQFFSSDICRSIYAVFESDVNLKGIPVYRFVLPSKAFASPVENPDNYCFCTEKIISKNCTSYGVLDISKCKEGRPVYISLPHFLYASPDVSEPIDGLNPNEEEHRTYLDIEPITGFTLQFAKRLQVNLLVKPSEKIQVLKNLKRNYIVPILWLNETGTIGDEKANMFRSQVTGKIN

| Compound | Kd [1] [nM] | Kd [2] [nM] | Kd [3] [nM] |
| --- | --- | --- | --- |
| CC1=C[C@H](O)CC(C)(C)[C@H]1/C=C/C(C)=C/C=C/C(C)=C/C=C/C=C(C)/C=C/C=C(C)/C=C/C1=C(C)C[C@@H](O)CC1(C)C [lutein] | 2510 ± 40 | 2040 ± 40 | 730 ± 6 |
| CC1=C(/C=C/C(C)=C/C=C/C(C)=C/C=C/C=C(C)/C=C/C=C(C)/C=C/C2=C(C)C[C@H](O)CC2(C)C)C(C)(C)C[C@H](O)C1 [meso-zeaxanthin] | 3900 ± 40 | 3100 ± 200 | 1660 ± 10 |
| CC1=C(/C=C/C(C)=C/C=C/C(C)=C/C=C/C=C(C)/C=C/C=C(C)/C=C/C2=C(C)C[C@@H](O)CC2(C)C)C(C)(C)C[C@H](O)C1 [zeaxanthin] | 1530 ± 40 | 1600 ± 100 | 920 ± 7 |
